Assay [1] has as its target T1, DNA gyrase from Escherichia coli (Escherichia coli, UniProt P0AES4+P0AES6).
T1 construct: purchased Inspiral is Ltd (Norwich, United Kingdom)
Put plainly: In vitro inhibitory activity screening of E. coli DNA gyrase. It is filed as biochemical. As to conditions: for remaining activity at 10 µM: 10 μM of compound, read-out: DNA Gyrase Residual activity RA (10 μM); for remaining activity at 100 µM: read-out: DNA Gyrase Residual activity RA (100 μM). The method, then: Gyrase B and ParE monomers have only modest ATPase activity which is enhanced in the case of the holo enzymes and stimulated further by DNA. The phosphate released following conversion of ATP into ADP can be detected by the addition of malachite green solution and measured by monitoring the increase in absorbance at 600 nm. Topoisomerases were purchased from Inspiral is Ltd (Norwich, United Kingdom). For the Escherichia coli DNA gyrase ATPase assay, the final assay composition was 10 nM DNA gyrase (a complex of two GyrA and two GyrB subunits, the A2B2 complex) 3 mM Tris, pH 7.5, 24 mM KCl, 2 mM MgCl2, 6.5 % (w/v) glycerol, 0.01 mg/ml bovine serum albumin (BSA), 2 mM DTT (dithiothreitol), 9 mM ATP, and 5 % DMSO solution containing the compounds). For E. coli topoisomerase IV ATPase assay, the final assay composition was 10 nM topoisomerase IV (a complex consisting of two ParC and two ParE subunits), 40 mM HEPES-KOH, pH 7.6, 100 mM Potassium Glutamate, 25 mM Magnesium Acetate, […] single-stranded DNA, 0.2 mg/ml BSA, 10 mM DTT, 0.5 mM ATP, and 5 % DMSO solution containing the compounds. The reactions were started by the addition of the ATP, and the reaction mixtures were allowed to incubate at 30 °C for 60 mins. Reactions were stopped by adding Malachite green solution (0.034 % malachite green, 10 mM ammonium molybdate, 1M HCl, 3.4 % Ethanol, 0.01 % Tween 20). Color was allowed to develop for 5 min, and the absorbance at 600 nm was measured spectrophotometrically. The half-maximum (50 %) inhibitory concentration (IC50) values were determined from the absorbance readings using no-compound and no-enzyme controls. The values reported are the averages of at least four independent experiments.
Based upon the antimicrobial screening data, target compounds 4a, 7c, and 13b were evaluated against DNA gyrase from Escherichia coli in the DNA supercoiling assay for studying their mechanism. The results are presented in Table 5(Tab. 5) as residual activities (RA is the percentage activity of the enzyme in the presence of 10 μM and 100 μM of compound).

Assay [2] has as its system Human colon carcinoma (HCT-116). Put plainly: Cytotoxic screening. It is filed as cell-based. The following applies: Homo sapiens, HCT-116; read-out: IC50 HCT-116. A digest of the protocol:
(§1)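 Read-out is crystal violet staining (the text also names MTT), lysis in 33 % acetic acid, A590, with untreated cells as 100 %. IC50 was estimated graphically from survival curves.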

Assay [3] has as its system human breast adenocarcinoma (MCF-7). The assay is described as follows: Cytotoxic screening. In kind it is cell-based. As to conditions: Homo sapiens, MCF7; read-out: IC50 MCF-7. Put shortly: as §1
For assay [4], the system named is human hepatocellular carcinoma (HEPG-2). Put plainly: Cytotoxic screening. It is filed as cell-based. The following applies: HepG2, read-out: IC50 HepG-2. A digest of the protocol: as §1
The subject of assay [5] is caspase-3 and -7. The assay is described as follows: Caspase-Glo 3/7 caspase activity assay. In kind it is cell-based, human. As to conditions: compared to control and doxorubicin; MCF-7 and HCT-116; compounds at IC50 concentration, 48 h. The method, then: To measure caspase-3 and -7 activities, a luminescent Caspase-Glo 3/7 assay was performed. HCT116 and MCF-7 cells were seeded onto black 96-well plates at a density of 3,500 cells/well. […] After 48 h a Caspase-Glo 3/7 Assay (Promega) was performed according to the manufacturer's instructions. After adding 100 μL of Caspase 3/7 Glo Reagent, cells were incubated for 2.5 h at room temperature. The luminescence was measured using a multi-plate reader (Synergy 4, BioTek) with an integration time of 1 second per well. The values are the means ± SD of three sets of experiments.
The initial reported assay of 4-aryl-4H-chromene series were identified as apoptosis inducers via caspase activation (Elinson et al., 2010[20]; Sondhi et al., 2010[58]; Thareja et al., 2010[60]; Trinchieri, 2015[61]). Furthermore, it was important to investigate the antiproliferative effect of the novel synthesized compounds 4a, 4b, and 4c using caspase-3 and -7 activities compared to doxorubicin and vehicle control drug in the corresponding cancer cell lines MCF-7 and HCT-116.

Converted amounts (≈) assume the structure as drawn.

The record followed here is publication PMC5547389, “Structure-activity relationships and molecular docking studies of chromene and chromene based azo chromophores: A novel series of potent antimicrobial and anticancer agents” (EXCLI Journal, 2017).

T1 sequence (P0AES4 whole entry, one chain of several): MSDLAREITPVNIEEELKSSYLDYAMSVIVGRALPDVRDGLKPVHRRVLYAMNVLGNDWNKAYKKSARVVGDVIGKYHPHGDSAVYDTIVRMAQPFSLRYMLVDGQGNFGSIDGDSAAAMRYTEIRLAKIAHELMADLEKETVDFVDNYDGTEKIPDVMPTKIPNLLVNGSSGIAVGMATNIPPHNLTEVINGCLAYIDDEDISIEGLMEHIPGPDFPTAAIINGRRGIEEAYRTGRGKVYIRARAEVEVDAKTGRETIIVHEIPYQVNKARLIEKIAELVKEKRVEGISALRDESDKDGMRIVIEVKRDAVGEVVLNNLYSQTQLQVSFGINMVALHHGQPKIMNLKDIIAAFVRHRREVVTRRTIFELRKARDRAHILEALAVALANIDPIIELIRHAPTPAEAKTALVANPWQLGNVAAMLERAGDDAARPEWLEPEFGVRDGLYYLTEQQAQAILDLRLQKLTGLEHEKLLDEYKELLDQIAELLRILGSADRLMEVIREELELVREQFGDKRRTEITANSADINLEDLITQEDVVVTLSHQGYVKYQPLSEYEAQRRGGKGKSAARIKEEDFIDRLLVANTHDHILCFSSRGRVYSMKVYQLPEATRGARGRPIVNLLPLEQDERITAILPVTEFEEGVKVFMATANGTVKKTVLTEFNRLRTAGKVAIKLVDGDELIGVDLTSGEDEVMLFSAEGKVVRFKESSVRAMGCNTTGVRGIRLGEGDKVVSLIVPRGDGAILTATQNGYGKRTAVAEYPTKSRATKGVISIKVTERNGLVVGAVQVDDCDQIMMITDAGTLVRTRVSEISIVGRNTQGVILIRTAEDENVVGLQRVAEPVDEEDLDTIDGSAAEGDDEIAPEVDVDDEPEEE

The term IC50 denotes the concentration that inhibits the measured activity by half. On to `N#CC1=C(N)Oc2c(N)cc3ccccc3c2C1c1ccc(F)cc1` (centres unmarked) [4a, 3,5-diamino-1-(4-fluorophenyl)-1H-benzo[f]chromene-2-carbonitrile], for which the remaining activity at 10 µM in assay [1] is 117%. The remaining activity at 100 µM in assay [1] came out at 114%. For the same compound, the concentration for half-maximal inhibition (IC50) in assay [2] amounted to 1 µg/mL (≈ 3.02 µM); in assay [3], 1 µg/mL (≈ 3.02 µM); in assay [4], 0.3 µg/mL (≈ 0.905 µM).
Take `N#CC1=C(N)Oc2c(N)cc3ccccc3c2C1c1ccc(Cl)cc1` (centres unmarked) [4b, 3,5-diamino-1-(4-chlorophenyl)-1H-benzo[f]chromene-2-carbonitrile]: the “elevation in the caspase activity” value in assay [5] is 2-3 folds. Further, the IC50 in assay [2] came to 1.1 µg/mL (≈ 3.16 µM); in assay [3], 1 µg/mL (≈ 2.88 µM); in assay [4], 1 µg/mL (≈ 2.88 µM).
For `Cc1ccc(C2C(C#N)=C(N)Oc3c(N)cc4ccccc4c32)cc1` (centres unmarked) [4c, 3,5-diamino-1-(p-tolyl)-1H-benzo[f]chromene-2-carbonitrile], the “elevation in the caspase activity” value in assay [5] is listed as 2-3 folds. In addition, the values for the IC50 in assay [2], in assay [3] and in assay [4] were 1.1 µg/mL (≈ 3.36 µM), 0.8 µg/mL (≈ 2.44 µM) and 0.3 µg/mL (≈ 0.916 µM), respectively.
With `N#CC1=C(N)Oc2c(ccc3c(N)cccc23)C1c1ccc(F)cc1` (centres unmarked) [7c], the remaining activity at 10 µM in assay [1] was 125%. The remaining activity at 100 µM in assay [1] stood at 128%. Also, the IC50 in assay [2] was found to be 2 µg/mL (≈ 6.04 µM); in assay [3], 1.4 µg/mL (≈ 4.23 µM); in assay [4] it was 0.7 µg/mL (≈ 2.11 µM).
For `COc1ccc(N=Nc2cc3c(cc2O)OC(N)=C(C#N)C3c2ccc(F)cc2)cc1` (centres unmarked) [13b, 2-Amino-4-(4-fluoro-phenyl)-7-hydroxy-6-(4-methoxy-phenylazo)-4H-chromene-3-carbonitrile], in that order: 137%, 127%, 2.41 µg/mL (≈ 5.79 µM), 3.78 µg/mL (≈ 9.08 µM) and 5.4 µg/mL (≈ 13 µM).
